Assay results as given in patent US10238670B2, “9-aminomethyl minocycline compounds and methods of use thereof in urinary tract infection (UTI) treatment” (Paratek Pharmaceuticals, Inc., priority 2016, dated 2019).
Where two headings read alike, the source gives them in different places.

Experiments:
[1] = tested on: E. coli (ATCC 25922) biofilm; assay: MBEC assay, inhibition of biofilm formation; format: cell-based, Escherichia coli
Experimental: (§1) The MBEC™ assay (formerly the Calgary biofilm device; Innovotech Inc., Canada) is a well-established high throughput assay for assessment of anti-biofilm activity of test agents in a 96-well format. Within this assay, the biofilm is formed on the plastic pegs of the plate lid. After inoculated media is introduced to the wells of the 96-well plate, the plate is placed in a shaking incubator to generate the necessary shear force for biofilm growth on the pegs. Following a suitable incubation time, the individual biofilms can be treated with varying concentrations of test agents (challenge plate). After the desired treatment time, the remaining biofilm-associated bacteria are retrieved from the pegs through sonication (recovery plate). Serial dilution and/or plating of the recovered bacterial suspension allow for the quantification of test agents' efficacy against pre-formed biofilms. Additionally, readout of the challenge plate from the biofilm treatment can be used to determine MIC values of test agents. The absence of growth in the recovery plate indicates complete biofilm eradication and the lowest concentration of a test agent that achieves this is designated as the minimum biofilm eradication concentration (MBEC). The MBEC™ assay is also amenable to assess potential synergistic effects of combination treatments, as well as efficacy of test agents in inhibiting or inducing biofilm formation.
The MBEC™ plates were inoculated with either 10^5 CFU/mL (low inoculum) or 10^7 CFU/mL (high inoculum) of stationary phase E. coli (ATCC 25922) with simultaneous addition of antibiotics to evaluate the progression of biofilm formation under antibiotic challenge. After 24 hour incubation, the bacteria were recovered and enumerated (as above). FIG. 6. […] FIG. 7.

[2] = tested on: E. coli (ATCC 25922) biofilm; assay: MBEC assay, activity against established 24 hour biofilm; format: cell-based, Escherichia coli; settings: 24 hours challenge
Experimental: as §1, with “formation. The MBEC™ plates were inoculated with 10^7 CFU/mL of stationary phase E. coli (ATCC 25922) and incubated for 24 hours to allow formation of a robust biofilm. The individual biofilms formed on the pegs were challenged with varying concentrations of antibiotics for 24 hours, followed by recovery of the surviving bacteria. Bacterial enumeration was performed using a Most Probable Number (MPN) assay (Sutton, Journal of Validation Technology 16 (3): 35-38, 2010, incorporated herein by reference) in a 96-well format.” for “formation.”

[3] = IV; cIAI; cited from earlier work
[4] = IV to oral transition therapy; cUTI; cited from earlier work
human plasma protein = settings: cited from earlier work

SMILES | reduction in total bioburden of biofilm compared to control ([1]; (approx. 15% of MIC), low inoculum) | induction of biofilm formation ([1]; sub-MIC doses) | reduction of total biofilm-associated bacteria ([2]; at around MIC) | reduction in bioburden ([2]; at higher concentrations) | primary endpoint [3] | primary endpoint, non-inferiority compared to levofloxacin [4] | human plasma protein binding (human plasma protein; Concentration 100 ng/mL, literature) | human plasma protein binding (human plasma protein; Concentration 1,000 ng/mL, literature) | human plasma protein binding (human plasma protein; Concentration 10,000 ng/mL, literature) | human plasma protein binding (human plasma protein; Concentration 100,000 ng/mL, literature) | type of plasma protein binding (human plasma protein; binding increases with increasing drug concentrations) | human plasma protein binding, Mean (human plasma protein; literature)
O=C(O)c1cn(C2CC2)c2cc(N3CCNCC3)c(F)cc2c1=O [ciprofloxacin] | no reduction in the total bioburden | did not induce biofilm formation | did not show activity | up to 5 log units |  |  |  |  |  |  |  | 
CN(C)[C@@H]1C(O)=C(C(N)=O)C(=O)[C@@]2(O)C(O)=C3C(=O)c4c(O)c(NC(=O)CN5CCCC5)cc(F)c4C[C@H]3C[C@@H]12 [eravacycline] |  |  |  |  | did meet its primary endpoint | failed to achieve its primary endpoint of statistical non-inferiority | 79.3% | 87.0% | 89.3% | 97.0% | atypical, non-linear protein binding | 79-97%
